“Also recorded” adds a separate entry of the source.
Tests used:
[1] = system: β-amyloid; conditions: stated as known; cited from earlier work
[2] = biological target: Aβ40 (Homo sapiens, UniProt P05067); assay: Competition with fluorescent dye ThT for binding to Aβ40 (in-vitro assay); conditions: FIG. 1
Protocol: Competition for fluorescent binding to Aβ40: the inhibition test of competition binding to amyloid was carried out, in which 2 μM Aβ40, 1 μM amyloid fluorescent dye ThT, and 0.47 nM, 0.94 nM, 4.7 nM, 9.4 nM, 47 nM, 94 nM, 470 nM, 940 nM, 4700 nM and 9400 nM of standard compounds (PiB and BTA-1) and the compound of the present invention as the competing compounds were used. The reaction was carried out for 2 hrs at room temperature, which was excited by using Anthos Zenyth 3100 at an excitation wavelength of 485 nm, and then emitted a florescence of 535 nm. The binding rate of ThT to amyloid was set to 1 where no compound of the present invention was added to compete with ThT for binding. The PiB and BTA-1 were used as positive controls, and the binding rate of each concentration of compound was calculated according to the formula: binding rate=(fluorescence intensity with the compound of the present invention/fluorescence intensity without the compound of the present invention). The result is shown in FIG. 1, in which the horizontal axis is the concentration of the competing compound, and the longitudinal axis is the binding rate of ThT.

Sequence of Aβ40 (P05067 672-711 limits assumed): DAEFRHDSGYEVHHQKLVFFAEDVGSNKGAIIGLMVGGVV

SMILES	affinity to β-amyloid [1]	binding rate of ThT to amyloid in competition with the compound ([2]; 2 μM Aβ40, 1 μM ThT, 0.47 nM to 9400 nM competing compound, 2 hrs at room temperature, excitation 485 nm, emission 535 nm)	ThT binding rate compared with PiB and BTA-1 ([2]; at a low concentration of competing compound)
CNc1ccc(-c2nc3ccccc3s2)cc1 [BTA-1]	high affinity		
[11CH3]Nc1ccc(-c2nc3ccc(O)cc3s2)cc1 [PiB]	high affinity		
CC(C)c1ccc(N2Cc3ccc(N)cc3C2)cc1 [the compound of the present invention, N-(4-isopropylphenyl)-5-amino-isoindoline]		can compete with the β-amyloid dye thioflavin T (ThT) for binding to amyloid; also recorded: decrease gradually with the increasing concentration of the compound of the present invention	comparable to that of other known compounds at a low concentration
